Test results published in patent EP0639573A1, “Benzocondensed five membered heterocycles, process of their preparation, their use as drug, as diagnostic means and pharmaceuticals containing it” (HOECHST AKTIENGESELLSCHAFT, priority 1993, dated 1995).
Structures can show the parent of a compound that is named as a salt.

Molecular target: T1, Na⁺/H⁺-Exchanger (Oryctolagus cuniculus, UniProt P23791)
T1 construct: den Na⁺-Influx in die Erythrocyten via Na⁺/H⁺-Austausch flammenphotometrisch bestimmen zu können; from tissue; host or cells: Erythrocytes in whole blood from ear arteries of cholesterol-fed White New Zealand rabbits (Ivanovas)
T1 sequence (P23791 whole entry): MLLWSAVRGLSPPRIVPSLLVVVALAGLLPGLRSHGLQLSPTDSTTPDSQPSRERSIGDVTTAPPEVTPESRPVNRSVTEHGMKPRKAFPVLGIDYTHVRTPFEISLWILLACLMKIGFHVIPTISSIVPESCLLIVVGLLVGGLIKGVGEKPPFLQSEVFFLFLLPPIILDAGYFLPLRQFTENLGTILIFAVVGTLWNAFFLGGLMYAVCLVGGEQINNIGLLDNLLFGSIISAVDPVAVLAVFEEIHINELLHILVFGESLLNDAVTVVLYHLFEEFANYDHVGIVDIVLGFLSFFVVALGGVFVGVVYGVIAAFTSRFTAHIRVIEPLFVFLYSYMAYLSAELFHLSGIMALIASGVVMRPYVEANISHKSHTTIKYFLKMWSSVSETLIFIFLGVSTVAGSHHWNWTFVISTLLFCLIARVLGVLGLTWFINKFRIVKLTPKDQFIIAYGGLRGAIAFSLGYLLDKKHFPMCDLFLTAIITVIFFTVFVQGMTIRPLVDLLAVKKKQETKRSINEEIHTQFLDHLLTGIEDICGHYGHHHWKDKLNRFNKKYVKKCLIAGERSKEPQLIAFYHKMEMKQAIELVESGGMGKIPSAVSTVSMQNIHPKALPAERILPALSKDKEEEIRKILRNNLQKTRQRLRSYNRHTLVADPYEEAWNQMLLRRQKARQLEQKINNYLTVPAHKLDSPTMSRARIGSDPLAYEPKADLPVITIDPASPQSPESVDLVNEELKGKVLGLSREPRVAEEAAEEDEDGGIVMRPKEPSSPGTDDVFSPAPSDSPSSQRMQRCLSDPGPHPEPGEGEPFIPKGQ
Assay: Inhibition of the Na+/H+ exchanger of rabbit erythrocytes (amiloride-sensitive Na+ influx, flame photometry)
Type: cell-based, Kaninchen
Conditions: Kaninchenerythrocyten; hyperosmolar salt-sucrose medium, pH 7,4, 37°C; rabbits on 2% cholesterol diet; read-out: IC₅₀
Text: Inhibition des Na⁺/H⁺-Exchangers von Kaninchenerythrocyten
Weiße Neuseeland-Kaninchen (Ivanovas) erhielten eine Standard-Diät mit 2% Cholesterin für sechs Wochen, um den Na⁺/H⁺-Austausch zu aktivieren und so den Na⁺-Influx in die Erythrocyten via Na⁺/H⁺-Austausch flammenphotometrisch bestimmen zu können. Das Blut wurde den Ohrarterien entnommen und durch 25 IE Kalium-Heparin ungerinnbar gemacht. Ein Teil jeder Probe wurde zur Doppelbestimmung des Hämatokrits durch Zentrifugieren benutzt. Aliquots von jeweils 100 µl dienten zur Messung des Na⁺-Ausgangsgehalts der Erythrocyten.
Um den Amilorid-sensitiven Natrium-Influx zu bestimmen, wurden 100 µl jeder Blutprobe in jeweils 5 ml eines hyperosmolaren Salz-Sucrose-Mediums (mmol/l: 140 NaCl, 3 KCl, 150 Sucrose, 0,1 Ouabain, 20 Tris-hydroxymethylaminomethan) bei pH 7,4 und 37°C inkubiert. Die Erythrocyten wurden danach dreimal mit eiskalter MgCl₂-Ouabain-Lösung (mmol/l: 112 MgCl₂, 0,1 Ouabain) gewaschen und in 2,0 ml destilliertem Wasser hämolysiert. Der intrazelluläre Natriumgehalt wurde flammenphotometrisch bestimmt.
Der Na⁺ -Nettoinflux wurde aus der Differenz zwischen Natrium-Ausgangswerten und dem Natriumgehalt der Erythrocyten nach Inkubation errechnet. Der Amilorid-hemmbare Natrium-Influx ergab sich aus der Differenz des Natriumgehalts der Erythrocyten nach Inkubation mit und ohne Amilorid 3 x 10⁻⁴ mol/l. Auf diese Weise wurde auch bei den erfindungsgemäßen Verbindungen verfahren.

Compound | IC50
CCn1c(C(=O)N=C(N)N)cc2cc(Cl)ccc21 [Beispiel 52, 5-Chlor-1-ethyl-2-indolylcarbonyl-guanidin-hydrochlorid] | 40 nM
CCCn1c(C(=O)N=C(N)N)cc2cc(Cl)ccc21 [Beispiel 53, 5-Chlor-1-propyl-2-indolylcarbonyl-guanidin-hydrochlorid] | 50 nM
CCCCn1c(C(=O)N=C(N)N)cc2cc(Cl)ccc21 [Beispiel 54, 5-Chlor-1-butyl-2-indolylcarbonyl-guanidin-hydrochlorid] | 200 nM
NC(N)=NC(=O)c1cc2cc(Cl)ccc2n1Cc1ccncc1 [Beispiel 61, 5-Chlor-1-(4-picolyl)-2-indolylcarbonyl-guanidin-dihydrochlorid] | 300 nM
Cn1c(C(=O)N=C(N)N)c(Cl)c2cc(Cl)ccc21 [Beispiel 69, 3,5-Dichlor-1-methyl-2-indolylcarbonyl-guanidin-hydrochlorid] | 50 nM
Cn1c(C(=O)N=C(N)N)c(Cl)c2cc(F)ccc21 [Beispiel 86, 3-Chlor-5-fluor-1-methylindolyl-2-carbonsäureguanidid Hydrochlorid] | 30 nM
CN1c2ccccc2CC1C(=O)N=C(N)N (stereo not shown) [Beispiel 104, 1-Methylindolin-2-carbonsäure-guanidid-hydrochlorid] | 200 nM
CN1c2ccc(F)cc2CC1C(=O)N=C(N)N (stereo not shown) [Beispiel 106, 5-Fluor-1-methylindolin-2-carbonsäureguanidid Hydrochlorid] | 50 nM

Test system: Rattenherzen
Assay: not given
Conditions: isolated rat hearts; Eur. Heart J. 9 (suppl. 1): 167 (1988); cited from earlier work

Compound | künstlich ausgelöstes Kammerflimmern
NC(N)=NC(=O)c1nc(Cl)c(N)nc1N [Amilorid] | völlig unterdrückt
CCN(c1nc(N)c(C(=O)N=C(N)N)nc1Cl)C(C)C [Ethylisopropylamilorid] | Noch potenter als Amilorid
